The test system of assay [1] is T1, AcCR (carbonyl reductase).
T1 construct: native purification from Acetobacter cells (ammonium sulfate, DEAE-Sepharose, Native-PAGE); homotetramer 104 kDa, subunit 27 kDa
As to the kind of experiment: spectrophotometric initial rate at […] nm; Hill fit. Format: biochemical, Acetobacter sp. CCTCC M209061. To be noted: NADH-linked reduction (NADH fixed 1 mM), pH 5.0, 25°C; sigmoidal, cooperative.

For assay [2], the system named is T1, AcCR (carbonyl reductase). As to the kind of experiment: spectrophotometric initial rate at […] nm. The assay is classed as biochemical, Acetobacter sp. CCTCC M209061.
Assay [3] concerns the target carbonyl reductase from Acetobacter sp. CCTCC M209061 (AcCR) (Acetobacter sp. CCTCC M209061). As to the kind of experiment: SEC; gel permeation on Superdex G-200, 50 mM phosphate buffer pH 7.0 with 0.15 M NaCl, 0.2 ml/min, calibrated with mass markers; apparent native mass (104 kDa) compared with the subunit mass by SDS-PAGE (27 kDa). (In gel filtration, larger molecules generally elute earlier.)

Setting [4] is: oxidation of isopropanol (fixed 110 mM), pH 8.0, 35°C.

Our source for the Km and stoichiometry N values is paper PMC3989197, “A Novel Carbonyl Reductase with Anti-Prelog Stereospecificity from Acetobacter sp. CCTCC M209061: Purification and Characterization” (PLoS ONE, 2014).

Broadly, the Km is the concentration of substrate that gives half-maximal velocity. Broadly, the stoichiometry N is the number of molecules, sites or subunits per partner or assembly.

Regarding `CC(=O)c1ccc(Cl)cc1` [4′-chloroacetophenone], the Km in assay [1] worked out at 4130 ± 157 µM; in assay [2] (NADPH-linked reduction (NADPH fixed 0.1 mM), pH 7.5, 25°C) it was 2960 ± 87 µM.
For `NC(=O)C1=CN([C@@H]2O[C@H](COP(=O)(O)OP(=O)(O)OC[C@H]3O[C@@H](n4cnc5c(N)ncnc54)[C@H](O)[C@@H]3O)[C@@H](O)[C@H]2O)C=CC1` [NADH], the Km in assay [2] (reduction of 4′-chloroacetophenone (fixed 5 mM), pH 5.0, 25°C) worked out at 660 ± 21 µM.
With `NC(=O)C1=CN([C@@H]2O[C@H](COP(=O)(O)OP(=O)(O)OC[C@H]3O[C@@H](n4cnc5c(N)ncnc54)[C@H](OP(=O)(O)O)[C@@H]3O)[C@@H](O)[C@H]2O)C=CC1` [NADPH], the Km in assay [2] (reduction of 4′-chloroacetophenone (fixed 5 mM), pH 7.5, 25°C) worked out at 26 ± 1 µM.
On to `NC(=O)c1ccc[n+]([C@@H]2O[C@H](COP(=O)(O)OP(=O)(O)OC[C@H]3O[C@@H](n4cnc5c(N)ncnc54)[C@H](OP(=O)(O)O)[C@@H]3O)[C@@H](O)[C@H]2O)c1` [NADP^+], for which the Km in assay [2] (setting [4]) came out at 1120 ± 35 µM.
Same read-out and setting: the same measure for `NC(=O)c1ccc[n+]([C@@H]2O[C@H](COP(=O)(O)OP(=O)(O)OC[C@H]3O[C@@H](n4cnc5c(N)ncnc54)[C@H](O)[C@@H]3O)[C@@H](O)[C@H]2O)c1` [NAD^+]: 1330 ± 45 µM.
For `CC(C)O` [isopropanol], the Michaelis-Menten constant (Km) in assay [2] (NAD+-linked oxidation (NAD+ fixed 5 mM), pH 8.0, 35°C) turned out to be 48300 ± 986 µM.
With “carbonyl reductase from Acetobacter sp. CCTCC M209061 (AcCR) (enzyme)”, the stoichiometry N in assay [3] is 4.
